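A five-concentration, 48-hour dose response in 96-well plates underlies each endpoint, interpolated linearly between surrounding concentrations. Here, GI50 denotes the concentration required for 50% inhibition of growth. TGI: total growth inhibition.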
Experiments:
Assay in all cases: inhibition of tumour cell growth, NCI panel, 48 h
NCI-H460 lung = test system: NCI-H460 lung
HS 578T breast = test system: HS 578T breast
SN12C renal = test system: SN12C renal
SK-MEL-2 melanoma = test system: SK-MEL-2 melanoma
SK-MEL-28 melanoma = test system: SK-MEL-28 melanoma
IGROV1 ovarian = test system: IGROV1 ovarian
UO-31 renal = test system: UO-31 renal
MDA-MB-435 = test system: MDA-MB-435
TK-10 renal = test system: TK-10 renal
NCI-H23 lung = test system: NCI-H23 lung

Row | Structure (SMILES) | TGI (NCI-H460 lung) [µM] | TGI (HS 578T breast) [µM] | TGI (SN12C renal) [µM] | TGI (SK-MEL-2 melanoma) [µM] | TGI (SK-MEL-28 melanoma) [µM] | TGI (IGROV1 ovarian) [µM] | TGI (UO-31 renal) [µM] | TGI (MDA-MB-435) [µM] | TGI (TK-10 renal) [µM] | TGI (NCI-H23 lung) [µM] | GI50 (NCI-H460 lung) [µM] | GI50 (HS 578T breast) [µM] | GI50 (SN12C renal) [µM] | GI50 (SK-MEL-2 melanoma) [µM] | GI50 (SK-MEL-28 melanoma) [µM] | GI50 (IGROV1 ovarian) [µM] | GI50 (UO-31 renal) [µM] | GI50 (MDA-MB-435) [µM] | GI50 (TK-10 renal) [µM] | GI50 (NCI-H23 lung) [µM]
1 | CC[N+](CC)(CCNCC(N)=O)CC(N)=O | > 10 | > 10 | > 10 | > 10 | > 10 | > 10 | > 10 | > 10 | > 10 | > 10 | – | – | – | – | – | – | – | – | – | –
2 | c1ccc(N=C2SC(=NC3CCCCC3)N(C3CCCCC3)C2=Nc2ccccc2)cc1 | > 100 | > 100 | > 100 | > 100 | > 100 | > 100 | > 100 | > 100 | – | > 100 | – | – | – | – | – | – | – | – | – | –
3 | Cc1ccc(S(=O)(=O)Oc2cc(-c3ccccc3)nc3ccccc23)cc1 | 13.7 | – | > 41.5 | 17 | 68.7 | 22.2 | 35.6 | – | – | 12.2 | – | – | – | – | – | – | – | – | – | –
4 | C=CC(Br)(CBr)CCC(Cl)C(C)C (configuration not stated) | 4.3 | 8.01 | 3.19 | 3.92 | 2.98 | 8.43 | 3.08 | 3.5 | 3.5 | 8.82 | – | – | – | – | – | – | – | – | – | –
5 | O=NN(CCCl)C(=O)NC1CCSc2ccccc21 (configuration not stated) | > 100 | – | > 100 | > 100 | > 94.1 | > 100 | > 100 | – | – | > 100 | – | – | – | – | – | – | – | – | – | –
6 | NC(Cc1cccc([N+](=O)[O-])c1)C(=O)O (configuration not stated) | > 100 | > 100 | > 100 | > 100 | > 100 | > 100 | > 100 | > 100 | > 100 | > 100 | – | – | – | – | – | – | – | – | – | –
7 | Cc1nc(N)sc1-c1ccnc(Nc2ccc(N3CCOCC3)cc2)n1 | > 43.9 | > 100 | > 100 | 59.3 | > 100 | > 33.7 | > 51.1 | 36.7 | 8.14 | > 100 | 0.495 | 0.603 | 2.24 | 5.16 | 4.22 | 0.846 | 1.28 | 1.86 | 1.06 | 1.6
8 | COc1ccc(C2CC(c3cccc(Nc4ccncc4)c3)=NN2c2cc(Cl)cc(Cl)c2)cc1 (configuration not stated) | 3.45 | – | 3.16 | 5.02 | 3.36 | 3.35 | 2.74 | 3.32 | – | 3.44 | 1.86 | – | 1.62 | 2.36 | 1.74 | 1.69 | 1.36 | 1.75 | – | 1.79
9 | NC(N)=NCCN=C(N)N | > 100 | > 100 | > 100 | > 100 | > 100 | > 100 | > 100 | > 100 | > 100 | > 100 | – | – | – | – | – | – | – | – | – | –
10 | NNC(N)Nc1ccccc1 (configuration not stated) | > 100 | > 100 | > 100 | > 100 | > 100 | > 100 | > 100 | > 100 | > 100 | > 100 | – | – | – | – | – | – | – | – | – | –
11 | NCCCNc1nc2ccccc2c2c(=O)c3cc(OC(F)(F)F)ccc3sc12 | 2.52 | – | 3.14 | 3.72 | 3.24 | 2.9 | 2.9 | 2.96 | 3.74 | 3.09 | 1.11 | – | 1.66 | 1.93 | 1.8 | 1.46 | 1.49 | 1.59 | 2.14 | 1.62

From PubChem BioAssay (NCI)
